Earlier results as cited in patent US6949582B1, “Method of relieving analgesia and reducing inflamation using a cannabinoid delivery topical liniment” (priority 1999, dated 2005).

How the values were obtained:
[1] = mice, given orally
[2] = rat hind-paw edema from carrageenan or PGE-1
[3] = test system: interleukin, TNF, cytokine-induced genes; settings: carrageenan-induced edema, up-regulation of cytokine-induced genes
[4] = test system: human rheumatoid synovial cells
[5] = live rats, carriers PEG, Transcutol, PG:EtOH 7:3
[6] = test system: cytokines such as TNFα; settings: in vivo
[7] = test system: mast-cell activation
[8] = test system: peripheral CB1-like and CB2-like receptors; settings: in vivo
[9] = test system: CB2; settings: by down-modulating mast cell formation after injury
[10] = biological target: T1, peripheral CB1 receptor (Rattus norvegicus, UniProt P20272)
T1 construct: host or cells: rat, peripheral tissue (hindpaw) in vivo

[11] = test system: calcitonin gene-related peptide release; settings: isolated hindpaw skin
[12] = test system: cell culture model
[13] = in vivo
[14] = test system: prostaglandin biosynthesis
[15] = peripheral, but not systemic, administration of 0.01 ng

T1 sequence (P20272 whole entry): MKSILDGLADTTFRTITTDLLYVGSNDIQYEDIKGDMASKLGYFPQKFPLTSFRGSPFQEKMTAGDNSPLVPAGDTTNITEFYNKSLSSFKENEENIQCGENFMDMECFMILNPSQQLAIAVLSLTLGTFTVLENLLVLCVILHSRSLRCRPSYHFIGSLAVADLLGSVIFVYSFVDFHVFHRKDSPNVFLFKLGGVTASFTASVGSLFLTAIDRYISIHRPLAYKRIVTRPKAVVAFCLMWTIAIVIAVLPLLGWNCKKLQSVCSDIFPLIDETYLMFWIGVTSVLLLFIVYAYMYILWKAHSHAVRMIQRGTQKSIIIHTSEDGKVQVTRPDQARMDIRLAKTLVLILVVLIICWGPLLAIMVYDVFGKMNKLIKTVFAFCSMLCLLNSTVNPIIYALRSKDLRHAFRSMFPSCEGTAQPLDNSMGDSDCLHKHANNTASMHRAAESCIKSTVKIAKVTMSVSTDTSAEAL

## CCCCCCC(C)(C)c1cc(O)c2c(c1)OC(C)(C)[C@@H]1CC=C(C(=O)O)C[C@@H]21
[1]
  acute and chronic inflammatory changes: supresses acute and chronic inflammatory changes

## CC1=CCC2CC1C2(C)C (stereo not drawn) [Alpha-pinene]
[2]
  anti-inflammatory activity: demonstrate anti-inflammatory activity

## O=c1cc(-c2ccc(O)cc2)oc2cc(O)cc(O)c12 [Apigenin]
[3]
  anti-inflammatory actions: important anti-inflammatory actions

## COc1cc(-c2cc(=O)c3c(O)c(C/C=C(\C)CCC=C(C)C)c(O)cc3o2)ccc1O [Cannflavin A]
[4]
  potency of inhibition of prostaglandin E-2 production relative to aspirin: 30 times

## COc1cc(-c2cc(=O)c3c(O)c(CC=C(C)C)c(O)cc3o2)ccc1O [Cannflavin B]
[4]
  potency of inhibition of prostaglandin E-2 production relative to aspirin: 30 times

## CCCCCc1cc(O)c2c(c1)OC(C)(C)[C@@H]1CC=C(C)C[C@@H]21 [Delta-8 THC]
[5]; after 2 hrs
  skin penetration by carrier: highest skin penetration of THC was observed from the Transcutol
[5]; after 24 hours
  concentration in skin layers by carrier: the Transcutol system delivered the highest THC concentration to the various layers of the skin

## CCCCCCC(C)(C)c1cc(O)c2c(c1)OC(C)(C)[C@H]1CC=C(CO)C[C@H]21 [HU-211]
[6]
  inflammation caused by mobilization of cytokines such as TNFα: supress inflammation

## CCCCCCCCCCCCCCCC(=O)NCCO [Palmitoylethanolamide, palmitylethanolamide]
[7]
  mast-cell activation and inflammatory responses: inhibits mast-cell activation and reduces inflammatory responses
[8]
  pain behavior produced by chemical damage to cutaneous tissue: exerts a similar effect
[9]
  carageenan-induced mechanical hyperalgesia and edema: attenuates

## Cc1c(C(=O)NN2CCCCC2)nn(-c2ccc(Cl)cc2Cl)c1-c1ccc(Cl)cc1 [SR141716A]
[8]
  pain behavior produced by chemical damage to cutaneous tissue: prolong and enhance the pain behavior

## CCCCC/C=C\C/C=C\C/C=C\C/C=C\CCCC(=O)NCCO [anandamide, arachidonyl-ethanolamide]
[10]; peripheral administration, reversed by CB1 antagonist SR 141716A
  hyperalgesia after its development: attenuated hyperalgesia
[10]; [15]
  edema: inhibited edema
  induction of hyperalgesia: inhibited the induction of hyperalgesia
[8]
  pain behavior produced by chemical damage to cutaneous tissue: attenuates the pain behavior
[11]
  capsaicin-evoked release of calcitonin gene-related peptide: inhibited

## C=C(C)[C@@H]1CCC(C)=C[C@H]1c1c(O)cc(CCCCC)cc1O [cannabidiol]
[12]
  neuroprotective properties compared with other antioxidants: matched or surpassed other antioxidants
[13]
  reduction of inflammation compared with aspirin: more effective than aspirin

## CCCCCc1cc(O)c2c(c1)OC(C)(C)[C@@H]1CCC(C)=C[C@@H]21 [delta-9-tetrahydrocannabinol]
Double blind controlled cross over study
  analgesic effects compared with codeine: analgesic effects equivalent to codeine
Patients with cancer pain, second study
  analgesia: significant analgesia

## C=CCc1ccc(O)c(OC)c1 [eugenol]
[14]
  prostaglandin inhibition: potent

## SR144528
[8]
  pain behavior produced by chemical damage to cutaneous tissue: prolong and enhance the pain behavior

## caryophyllene
[2]
  anti-inflammatory activity: demonstrate anti-inflammatory activity
